ChEMBL document CHEMBL1201862, “PubChem BioAssay data set” (2004)
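Five concentrations, 48 hours, 96-well plates. GI50 is the concentration that inhibits growth by half.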 Active and inactive are the calls of the source. No stated cut-off is given here; in the data, active = GI50 up to about 1.1 µM and inactive = higher.

Experiments:
Test in all cases: NCI anticancer screen, dose series, 48 h
[1] = tested on: OVCAR-8
[2] = tested on: HCT-116
[3] = tested on: SK-MEL-2
[4] = tested on: HCC 2998
[5] = tested on: SF-295
[6] = tested on: 786-0
[7] = tested on: A549
[8] = tested on: OVCAR-4
[9] = tested on: Malme-3M
[10] = tested on: A498
[11] = tested on: HT-29
[12] = tested on: SW-620
[13] = tested on: NCI-H226
[14] = tested on: M14
[15] = tested on: HCT-15
[16] = tested on: LOX IMVI
[17] = tested on: HL-60
[18] = tested on: CAKI-1

Structure (SMILES)	GI50 [1]	GI50 [2]	GI50 [3]	GI50 [4]	GI50 [5]	GI50 [6]	GI50 [7]	GI50 [8]	GI50 [9]	GI50 [10]	GI50 [11]	GI50 [12]	GI50 [13]	GI50 [14]	GI50 [15]	GI50 [16]	GI50 [17]	GI50 [18]
O=[N+]([O-])c1cccc(C2=NOC3C4CCC(C4)C23)c1 (stereo not drawn)	> 100 µM (inactive)	> 100 µM (inactive)	> 100 µM (inactive)	> 100 µM (inactive)	> 100 µM (inactive)	> 100 µM (inactive)	> 100 µM (inactive)	> 100 µM (inactive)	> 100 µM (inactive)	> 100 µM (inactive)	> 100 µM (inactive)	22.3 µM (inactive)	> 100 µM (inactive)	> 100 µM (inactive)	> 100 µM			
C#CCN(N=O)C(=O)NC(CCCCNC(=O)OCc1ccccc1)C(=O)OCc1ccccc1 (stereo not drawn)	17.4 µM (inactive)	33.8 µM (inactive)	37.8 µM (inactive)	31.5 µM (inactive)	55.5 µM (inactive)	17.8 µM (inactive)	76.2 µM (inactive)	24.7 µM (inactive)	28.2 µM (inactive)	> 100 µM (inactive)	21.2 µM (inactive)	23.3 µM (inactive)		21.4 µM (inactive)	20.8 µM	25.5 µM (inactive)	17.3 µM (inactive)	
COCCOCOC(CCCCO)c1cc(C)c(O[Si](C)(C)C(C)(C)C)c(C)c1 (stereo not drawn)	5.01 µM (inactive)		8.89 µM (inactive)	7.03 µM (inactive)	3.97 µM (inactive)	11.1 µM (inactive)	3.68 µM (inactive)		2.47 µM (inactive)	12.4 µM (inactive)		7.31 µM (inactive)	2.41 µM (inactive)	10.3 µM (inactive)	7.36 µM	5.66 µM (inactive)	1.59 µM (inactive)	
CN(C)CCNC(=O)c1cccc2c1nc(-c1ccncc1)c1ccccc12	3.06 µM (inactive)	1.46 µM (inactive)	6.12 µM (inactive)	2.6 µM (inactive)	2.85 µM (inactive)	3.66 µM (inactive)	0.552 µM (active)	4.01 µM (inactive)		1.15 µM (inactive)	3.32 µM (inactive)	1.11 µM (active)	1.95 µM (inactive)	4.83 µM (inactive)	1.99 µM	1.35 µM (inactive)	1.36 µM (inactive)	1.81 µM (inactive)
Cc1cc(N(CCC#N)CCC#N)ccc1/C=C1N=C(/C=C/c2ccccc2)N(c2ccc(S(N)(=O)=O)cc2)C\1=O	> 100 µM (inactive)	> 100 µM (inactive)	> 100 µM (inactive)		> 100 µM (inactive)	> 100 µM (inactive)	> 100 µM (inactive)	> 100 µM (inactive)	> 100 µM (inactive)	> 100 µM (inactive)	> 100 µM (inactive)	> 100 µM (inactive)	> 100 µM (inactive)	> 100 µM (inactive)	> 100 µM	> 100 µM (inactive)	> 100 µM (inactive)	> 100 µM (inactive)
CCOP(=O)(OCC)C(C(=O)OC)C(=O)C(=O)Nc1c(C)cc(Br)cc1C (stereo not drawn)	> 100 µM (inactive)	> 100 µM (inactive)	> 100 µM (inactive)	> 100 µM (inactive)		> 100 µM (inactive)	> 100 µM (inactive)	> 100 µM (inactive)	> 100 µM (inactive)	> 100 µM (inactive)	> 100 µM (inactive)	> 100 µM (inactive)	> 100 µM (inactive)	> 100 µM (inactive)	> 100 µM	> 100 µM (inactive)	> 100 µM (inactive)	> 100 µM (inactive)
COc1ccc2oc3c4c2c1CCC4CCC3=O (stereo not drawn)	59.4 µM (inactive)		> 100 µM (inactive)	> 100 µM (inactive)	> 100 µM (inactive)	> 100 µM (inactive)	> 100 µM (inactive)	33 µM (inactive)	> 100 µM (inactive)	6.75 µM (inactive)	> 100 µM (inactive)	> 100 µM (inactive)		> 100 µM (inactive)		> 100 µM (inactive)	> 100 µM (inactive)	
Cc1c(C(=O)/C=C/c2ccco2)[n+]([O-])c2ccccc2[n+]1[O-]	> 100 µM (inactive)	> 100 µM (inactive)		> 100 µM (inactive)	> 100 µM (inactive)	> 100 µM (inactive)	> 100 µM (inactive)		> 100 µM (inactive)	> 100 µM (inactive)	> 100 µM (inactive)	> 100 µM (inactive)	> 100 µM (inactive)	> 100 µM (inactive)		> 100 µM (inactive)	42 µM (inactive)	> 100 µM (inactive)
COc1ccc2nc(-c3ccc(OCc4ccccc4)cc3)ccc2c1	> 100 µM (inactive)	> 100 µM (inactive)		> 100 µM (inactive)	> 100 µM (inactive)	> 100 µM (inactive)	> 100 µM (inactive)	> 100 µM (inactive)	> 100 µM (inactive)		> 100 µM (inactive)	> 100 µM (inactive)	> 100 µM (inactive)	> 100 µM (inactive)		> 100 µM (inactive)	> 100 µM (inactive)	
COc1ccc(C(=O)Cc2c(C(=O)c3ccccc3)c3ccccc3n2C(=O)c2ccccc2)cc1	> 100 µM (inactive)	37.2 µM (inactive)	> 100 µM (inactive)	> 100 µM (inactive)	31.3 µM (inactive)	> 100 µM (inactive)	35.7 µM (inactive)	32.2 µM (inactive)	> 100 µM (inactive)		> 100 µM (inactive)	29.8 µM (inactive)	> 100 µM (inactive)	> 100 µM (inactive)	46 µM		38.3 µM (inactive)	> 100 µM (inactive)
COC(=O)CCC(NC(=S)N/N=C(\C)c1cnc2ccccc2n1)C(=O)OC (stereo not drawn)	46.9 µM (inactive)	18.3 µM (inactive)	56.8 µM (inactive)	32.1 µM (inactive)	49.8 µM (inactive)	43.6 µM (inactive)	34.8 µM (inactive)	25.9 µM (inactive)	41.3 µM (inactive)	92.9 µM (inactive)	14.2 µM (inactive)	20.8 µM (inactive)	41.8 µM (inactive)	30.8 µM (inactive)	35.1 µM	23.2 µM (inactive)	2.33 µM (inactive)	
CC1=C(C(=O)Nc2cccc(Cl)c2)C(c2ccccc2F)C(C(=O)Nc2cccc(Cl)c2)=C(C)N1	17 µM (inactive)		11.6 µM (inactive)	7.57 µM (inactive)	17.3 µM (inactive)	13.7 µM (inactive)	7.78 µM (inactive)	5.83 µM (inactive)	15.8 µM (inactive)	13.9 µM (inactive)	5.43 µM (inactive)	21.6 µM (inactive)	11.3 µM (inactive)	5.33 µM (inactive)		7.1 µM (inactive)	3.78 µM (inactive)	4.99 µM (inactive)
N=C(N)N/N=C\c1c(-c2ccccc2)nc2sccn12	16.5 µM (inactive)	15.2 µM (inactive)	15.1 µM (inactive)	4.54 µM (inactive)	14.7 µM (inactive)	14.1 µM (inactive)	17.5 µM (inactive)	15.8 µM (inactive)	16.3 µM (inactive)	19.5 µM (inactive)	15.3 µM (inactive)	12.9 µM (inactive)	17.6 µM (inactive)		15.7 µM	16.3 µM (inactive)	25.8 µM (inactive)	16 µM (inactive)
BrC1(Br)C2/C=C\CCCCC21 (stereo not drawn)	> 100 µM (inactive)	> 100 µM (inactive)	> 100 µM (inactive)	> 100 µM (inactive)	> 100 µM (inactive)	> 100 µM (inactive)	> 100 µM (inactive)	> 100 µM (inactive)	> 100 µM (inactive)	> 100 µM (inactive)	> 100 µM (inactive)	> 100 µM (inactive)	> 100 µM (inactive)			> 100 µM (inactive)	> 100 µM (inactive)	> 100 µM (inactive)
CCCN1CC=CCC1	> 100 µM (inactive)	> 100 µM (inactive)	> 100 µM (inactive)	> 100 µM (inactive)	> 100 µM (inactive)	> 100 µM (inactive)	> 100 µM (inactive)		> 100 µM (inactive)	> 100 µM (inactive)	> 100 µM (inactive)	> 100 µM (inactive)		> 100 µM (inactive)	> 100 µM	> 100 µM (inactive)	> 100 µM (inactive)	
CCC1CN2CCc3c([nH]c4ccccc34)C2C[C@@H]1CC(=O)N(C)C (stereo partly drawn)	> 100 µM (inactive)	> 100 µM (inactive)	> 100 µM (inactive)	> 100 µM (inactive)	> 100 µM (inactive)	> 100 µM (inactive)	> 100 µM (inactive)	> 100 µM (inactive)	> 100 µM (inactive)	> 100 µM (inactive)	> 100 µM (inactive)	> 100 µM (inactive)	> 100 µM (inactive)	> 100 µM (inactive)	> 100 µM	> 100 µM (inactive)	> 100 µM (inactive)	
O=C(O)CNS(=O)(=O)c1ccc(NCc2ccccc2)cc1	> 100 µM (inactive)	> 100 µM (inactive)	> 100 µM (inactive)	> 100 µM (inactive)		> 100 µM (inactive)	> 100 µM (inactive)	> 100 µM (inactive)	> 100 µM (inactive)		> 100 µM (inactive)	> 100 µM (inactive)	> 100 µM (inactive)	> 100 µM (inactive)	> 100 µM	> 100 µM (inactive)		> 100 µM (inactive)
